Results from patent publication US8883782B2, “Spiro-tetracyclic ring compounds as beta-secretase modulators and methods of use” (Amgen Inc., priority 2010, dated 2014).
Like-named read-outs stand apart in the source and are kept apart here.

Legend:
[1] = target: Beta Secretase enzyme (BACE) (Homo sapiens, UniProt P56817); assay: In vitro enzymatic BACE FRET (fluorescence resonance energy transfer) assay; format: biochemical; conditions: average IC50, enzyme assay; read-out: BACE 1 FRET assay
Outline: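 A peptide bearing a fluorophore and quencher across the cleavage site serves as substrate at 50 nM. Reactions proceed one hour in acidic acetate buffer (0.05 M, pH 4.2) containing 10% DMSO final and 100 uM genapol, then are terminated with Tris and read fluorimetrically.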

[2] = tested on: Aβ40 in conditioned medium of cells stably expressing Amyloid Precursor Protein (APP); assay: In vitro BACE cell-based assay (Aβ40 in conditioned medium, sandwich ELISA); conditions: read-out: HEK cell assay
Outline: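 The sandwich ELISA pairs pAb40 capture (3 h, 4 °C) with 6E10 detection (2 h, 4 °C) and a streptavidin-europium TRF read-out. Supernatants come from APP-expressing cells grown in 10% FBS DMEM.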

[3] = Homo sapiens, HEK293, average IC50
[4] = Homo sapiens, HEK293, average IC50, HEK cells

Beta Secretase enzyme (BACE), sequence (P56817 46-501, species assumed): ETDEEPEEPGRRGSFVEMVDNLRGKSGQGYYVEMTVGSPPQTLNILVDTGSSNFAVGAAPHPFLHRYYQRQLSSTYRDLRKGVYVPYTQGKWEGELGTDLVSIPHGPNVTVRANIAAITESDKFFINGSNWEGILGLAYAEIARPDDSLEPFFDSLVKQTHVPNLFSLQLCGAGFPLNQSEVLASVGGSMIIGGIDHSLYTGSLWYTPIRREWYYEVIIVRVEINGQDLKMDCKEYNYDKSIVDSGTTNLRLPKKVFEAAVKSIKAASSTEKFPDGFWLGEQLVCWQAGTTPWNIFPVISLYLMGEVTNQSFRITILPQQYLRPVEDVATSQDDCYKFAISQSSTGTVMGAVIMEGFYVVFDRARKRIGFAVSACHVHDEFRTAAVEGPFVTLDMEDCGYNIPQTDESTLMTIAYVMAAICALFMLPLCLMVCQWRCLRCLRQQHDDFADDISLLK

## NC1=N[C@@]2(CO1)c1cc(-c3cncc(N4CCOCC4)c3)ccc1Oc1c(F)cc(N3CCOCC3)cc12 [Example 209, (4S)-4′-fluoro-2′-(4-morpholinyl)-7′-(5-(4-morpholinyl)-3-pyridinyl)spiro[1,3-oxazole-4,9′-xanthen]-2-amine]
[1]
  IC50: 0.249 µM
[2]; [3]
  IC50: 0.209 µM

## NC1=N[C@@]2(CO1)c1cc(-c3cncc(F)c3)ccc1Oc1cnc(-c3cncc(F)c3)cc12 [Example 373, (5S)-3,7-bis(5-fluoro-3-pyridinyl)spiro[chromeno[2,3-c]pyridine-5,4′-[1,3]oxazol]-2′-amine]
[1]
  IC50: 0.0022 µM
[2]; [3]
  IC50: 0.0228 µM

## CC1(C#Cc2cnc3c(c2)[C@@]2(COC(N)=N2)c2c(ccc(-c4cncnc4)c2F)O3)COC1 [Example 345, (5S)-6-fluoro-3-((3-methyl-3-oxetanyl)ethynyl)-7-(5-pyrimidinyl)spiro[chromeno[2,3-b]pyridine-5,4′-[1,3]oxazol]-2′-amine]
[1]
  IC50: 0.094 µM
[2]; [3]
  IC50: 0.65 µM

## CC(C)(C)COc1ccc2c(c1)C1(COC(N)=N1)c1cc(C3CCCOC3)ccc1O2 [Example 911, (4S)-2′-(2,2-dimethylpropoxy)-7′-((3R)-tetrahydro-2H-pyran-3-yl)spiro[1,3-oxazole-4,9′-xanthen]-2-amine, (4S)-2′-(2,2-dimethylpropoxy)-7′-((3S)-tetrahydro-2H-pyran-3-yl)spiro[1,3-oxazole-4,9′-xanthen]-2-amine]
[1]
  IC50: 0.0192 µM
[2]; [4]
  IC50: 1.29 µM

## COCC1SC(N)=N[C@@]12c1cc(-c3cccnc3F)ccc1Oc1cnc(Cl)cc12 (stereo partly drawn) [Example 1088, (5R)-3-chloro-7-(2-fluoro-3-pyridinyl)-5′-(methoxymethyl)spiro[chromeno[2,3-c]pyridine-5,4′-[1,3]thiazol]-2′-amine, (5S)-3-chloro-7-(2-fluoro-3-pyridinyl)-5′-(methoxymethyl)spiro[chromeno[2,3-c]pyridine-5,4′-[1,3]thiazol]-2′-amine]
[1]
  IC50: 0.115 µM
[2]
  IC50: 3.06 µM

## CC#Cc1cc(F)c2c(c1)[C@]1(COC(N)=N1)c1cc(-c3cccnc3F)ccc1O2 [Example 651, (4S)-4′-fluoro-7′-(2-fluoro-3-pyridinyl)-2′-(1-propyn-1-yl)spiro[1,3-oxazole-4,9′-xanthen]-2-amine]
[1]
  IC50: 0.0019 µM
[2]; [4]
  IC50: 0.037 µM

## CC#Cc1cncc(-c2ccc3c(c2)[C@@]2(COC(N)=N2)c2cc(C4CCOCC4)nc(F)c2O3)c1 [Example 753, (5S)-1-fluoro-7-(5-(1-propyn-1-yl)-3-pyridinyl)-3-(tetrahydro-2H-pyran-4-yl)spiro[chromeno[2,3-c]pyridine-5,4′-[1,3]oxazol]-2′-amine]
[1]
  IC50: 0.0007 µM
[2]; [3]
  IC50: 0.004 µM

## CN(C)c1ccc(-c2cc3c(cn2)Oc2ccc(-c4cccnc4F)cc2[C@@]32COC(N)=N2)cc1 [Example 567, (5S)-3-(4-(dimethylamino)phenyl)-7-(2-fluoro-3-pyridinyl)spiro[chromeno[2,3-c]pyridine-5,4′-[1,3]oxazol]-2′-amine]
[1]
  IC50: 0.0046 µM
[2]; [4]
  IC50: 0.0746 µM

## NC1=N[C@@]2(CO1)c1cc(OCc3cccnc3)ccc1Oc1ncc(-c3cccnc3)cc12 [Example 975, (5S)-3-(3-pyridinyl)-7-(3-pyridinylmethoxy)spiro[chromeno[2,3-b]pyridine-5,4′-[1,3]oxazol]-2′-amine]
[1]
  IC50: 0.116 µM
[2]; [3]
  IC50: 1.08 µM

## CC1(COc2cc(F)c3c(c2)[C@]2(CSC(N)=N2)c2cc(-c4cccnc4F)c(F)cc2O3)COC1 [Example 885, (4S)-3′,5′-difluoro-2′-(2-fluoro-3-pyridinyl)-7′-((3-methyl-3-oxetanyl)methoxy)spiro[1,3-thiazole-4,9′-xanthen]-2-amine]
[1]
  IC50: 0.0004 µM
[2]; [4]
  IC50: 0.005 µM

## NC1=N[C@@]2(CO1)c1cc(-c3cncc(F)c3)ccc1Oc1c2cc(N2CC[C@@H](F)C2)nc1F [Example 921, (5S)-1-fluoro-7-(5-fluoro-3-pyridinyl)-3-((3R)-3-fluoro-1-pyrrolidinyl)spiro[chromeno[2,3-c]pyridine-5,4′-[1,3]oxazol]-2′-amine]
[1]
  IC50: 0.0005 µM
[2]; [4]
  IC50: 0.006 µM

## NC1=N[C@]2(CO1)c1cc(C3=CCCOC3)ccc1Oc1cc(F)c(-c3cncnc3)cc12 [Example 514, (4R)-7′-(5,6-dihydro-2H-pyran-3-yl)-3′-fluoro-2′-(5-pyrimidinyl)spiro[1,3-oxazole-4,9′-xanthen]-2-amine]
[1]
  IC50: 0.0026 µM
[2]; [4]
  IC50: 0.0114 µM

## NC1=N[C@@]2(CS1)c1cc(-c3cccc(Cl)c3)ccc1Oc1cnc(C3=CCOCC3)cc12 [Example 591, (5S)-7-(3-chlorophenyl)-3-(3,6-dihydro-2H-pyran-4-yl)spiro[chromeno[2,3-c]pyridine-5,4′-[1,3]thiazol]-2′-amine]
[1]
  IC50: 0.0007 µM
[2]; [4]
  IC50: 0.0733 µM

## CC1(C)CC(c2ccc3c(c2)[C@]2(COC(N)=N2)c2cc(-c4cncnc4)c(F)cc2O3)=CCO1 [Example 505, (4R)-7′-(2,2-dimethyl-3,6-dihydro-2H-pyran-4-yl)-3′-fluoro-2′-(5-pyrimidinyl)spiro[1,3-oxazole-4,9′-xanthen]-2-amine]
[1]
  IC50: 0.0026 µM
[2]; [4]
  IC50: 0.0125 µM

## NC1=N[C@@]2(CS1)c1cc(-c3cncc(F)c3)ccc1Oc1ncc(C3=CCCOC3)cc12 [Example 770, (5S)-3-(5,6-dihydro-2H-pyran-3-yl)-7-(5-fluoro-3-pyridinyl)spiro[chromeno[2,3-b]pyridine-5,4′-[1,3]thiazol]-2′-amine]
[1]
  IC50: 0.0006 µM
[2]; [3]
  IC50: 0.01 µM

## NC1=N[C@@]2(CO1)c1cc(-c3cccnc3F)ccc1Oc1c(F)cc(-c3cncnc3)cc12 [Example 214, (4S)-4′-fluoro-7′-(2-fluoro-3-pyridinyl)-2′-(5-pyrimidinyl)spiro[1,3-oxazole-4,9′-xanthen]-2-amine]
[1]
  IC50: 0.0028 µM
[2]; [3]
  IC50: 0.0187 µM

## CC1(C)C=C(c2cnc3c(c2)[C@@]2(COC(N)=N2)c2c(ccc(-c4cncnc4)c2F)O3)CCO1 [Example 354, (5S)-3-(6,6-dimethyl-3,6-dihydro-2H-pyran-4-yl)-6-fluoro-7-(5-pyrimidinyl)spiro[chromeno[2,3-b]pyridine-5,4′-[1,3]oxazol]-2′-amine]
[1]
  IC50: 0.0918 µM
[2]; [3]
  IC50: 0.342 µM

## NC1=N[C@@]2(CS1)c1cc(-c3cncc(F)c3)ccc1Oc1cnc(C3=CCOCC3)cc12 [Example 619, (5S)-3-(3,6-dihydro-2H-pyran-4-yl)-7-(5-fluoro-3-pyridinyl)spiro[chromeno[2,3-c]pyridine-5,4′-[1,3]thiazol]-2′-amine]
[1]
  IC50: 0.0004 µM
[2]; average IC50, HEK cells
  IC50: 0.008 µM

## C[C@H]1COCCN1c1cc(F)c2c(c1)[C@]1(CSC(N)=N1)c1cc(-c3cccnc3F)ccc1O2 [Example 1082, (4S)-4′-fluoro-7′-(2-fluoro-3-pyridinyl)-2′-((3S)-3-methyl-4-morpholinyl)spiro[1,3-thiazole-4,9′-xanthen]-2-amine]
[1]
  IC50: 0.0003 µM
[2]; [3]
  IC50: 0.004 µM

## COc1cc(F)c2c(c1)[C@@]1(COC(N)=N1)c1cc(-c3cncnc3)c(F)cc1O2 [Example 555, (4R)-3′,5′-difluoro-7′-methoxy-2′-(5-pyrimidinyl)spiro[1,3-oxazole-4,9′-xanthen]-2-amine]
[1]
  IC50: 0.29 µM
[2]; [4]
  IC50: 1.7 µM

## NC1=NC2(CS1)c1cc(I)ccc1Oc1ncc(Br)cc12 (centres unmarked) [Example 522, 3-bromo-7-iodospiro[chromeno[2,3-b]pyridine-5,4′-[1,3]thiazol]-2′-amine]
[1]
  IC50: 4.5 µM
[2]; [4]
  IC50: 10 µM

## C[C@H]1CN(c2cc3c(cn2)Oc2ccc(-c4cccnc4N4CCN(C)[C@@H](C)C4)cc2[C@@]32COC(N)=N2)CCN1C [Example 530, (5S)-3-((3S)-3,4-dimethyl-1-piperazinyl)-7-(2-((3S)-3,4-dimethyl-1-piperazinyl)-3-pyridinyl)spiro[chromeno[2,3-c]pyridine-5,4′-[1,3]oxazol]-2′-amine]
[1]
  IC50: 3.37 µM
[2]; [4]
  IC50: 0.195 µM

## N#Cc1ccncc1-c1ccc2c(c1)[C@@]1(COC(N)=N1)c1cc(Cl)ncc1O2 [Example 655, 3-((5S)-2′-amino-3-chlorospiro[chromeno[2,3-c]pyridine-5,4′-[1,3]oxazol]-7-yl)-4-pyridinecarbonitrile]
[1]
  IC50: 0.6 µM
[2]; [4]
  IC50: 10 µM

## CC1(C#Cc2cc3c(cn2)Oc2ccc(-c4cccnc4)cc2[C@@]32COC(N)=N2)COC1 [Example 154, (5S)-3-((3-methyl-3-oxetanyl)ethynyl)-7-(3-pyridinyl)spiro[chromeno[2,3-c]pyridine-5,4′-[1,3]oxazol]-2′-amine]
[1]
  IC50: 0.0014 µM
[2]; [3]
  IC50: 0.0065 µM

## COc1nc(Cl)cc2c1Oc1ccc(Br)cc1[C@@]21COC(N)=N1 [Example 710, (S)-7-bromo-3-chloro-1-methoxy-5′H-spiro[chromeno[2,3-c]pyridine-5,4′-oxazol]-2′-amine]
[1]
  IC50: 6.89 µM
[2]; [3]
  IC50: ≥ 10 µM

## N#Cc1cccc(-c2ccc3c(c2)[C@@]2(COC(N)=N2)c2cc(N4CC[C@@H](F)C4)ncc2O3)c1 [Example 425, 3-((5S)-2′-amino-3-((3R)-3-fluoro-1-pyrrolidinyl)spiro[chromeno[2,3-c]pyridine-5,4′-[1,3]oxazol]-7-yl)benzonitrile]
[1]
  IC50: 0.0008 µM
[2]; [4]
  IC50: 0.0048 µM

## NC1=N[C@@]2(CS1)c1cc(-c3cncnc3)c(F)cc1Oc1c(F)cc(N3CCOCC3)cc12 [Example 888, (4S)-3′,5′-difluoro-7′-(4-morpholinyl)-2′-(5-pyrimidinyl)spiro[1,3-thiazole-4,9′-xanthen]-2-amine]
[1]
  IC50: 0.0021 µM
[2]; [4]
  IC50: 0.01 µM

## COc1ccc(-c2cc(F)c3c(c2)[C@]2(COC(N)=N2)c2cc(-c4cccnc4F)ccc2O3)nn1 [Example 275, (4S)-4′-fluoro-7′-(2-fluoro-3-pyridinyl)-2′-(6-methoxy-3-pyridazinyl)spiro[1,3-oxazole-4,9′-xanthen]-2-amine]
[1]
  IC50: 0.0007 µM
[2]; [3]
  IC50: 0.008 µM
